# Assay results: US20240254115A1 (ACONDICIONAMIENTO TARRASENSE, priority 2021, published 2024)
# Experiments:
# [1] = target: T1, human σ1 receptor (Homo sapiens, UniProt Q99720); experiment: Human σ1 receptor radioligand assay; conditions: transfected HEK-293 membranes, 5 nM [3H](+)-pentazocine, 37° C. 120 minutes; + may also stand for 1-50% inhibition at 1 or 10 μM; read-out: Binding σ-1 Ki
# T1 construct: expressed in transfected cells; host or cells: HEK-293
# Summary of the method: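 Ki was derived from five test concentrations, or % inhibition was measured at a single 1 or 10 μM dose, against 5 nM [3H](+)-pentazocine. Incubation was 120 min at 37° C in 50 mM Tris-HCl pH 8 with 7 μg HEK-293 membranes, and 10 μM haloperidol set non-specific binding. Bound radioactivity was counted after filtration.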
# [2] = target: T2, human σ2/TMEM97 receptor (Homo sapiens, UniProt Q5BJF2); experiment: Binding assay to human σ2/TMEM97 receptor; conditions: transfected HEK-293 membranes, 10 nM [3H]-DTG, 25° C. 120 minutes; + may also stand for 1-50% inhibition at 1 or 10 μM; read-out: Binding σ-2 Ki
# T2 construct: expressed in transfected cells; host or cells: HEK-293
# T2 sequence (Q5BJF2 whole entry): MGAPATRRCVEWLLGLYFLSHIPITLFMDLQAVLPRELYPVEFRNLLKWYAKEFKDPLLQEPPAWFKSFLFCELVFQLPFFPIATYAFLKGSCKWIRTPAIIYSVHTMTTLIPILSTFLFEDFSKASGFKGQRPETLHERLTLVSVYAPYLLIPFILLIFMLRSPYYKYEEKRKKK
# Summary of the method: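 Membranes from transfected HEK-293 cells (15 µg) were incubated with 10 nM [3H]-DTG in 50 mM Tris-HCl pH 8.0 for 120 min at 25 °C, with 10 µM haloperidol defining non-specific binding. Filtration and scintillation counting followed. Compounds tested as % inhibition at 1 or 10 µM, or at five concentrations for Ki.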
# T1 sequence (Q99720 whole entry): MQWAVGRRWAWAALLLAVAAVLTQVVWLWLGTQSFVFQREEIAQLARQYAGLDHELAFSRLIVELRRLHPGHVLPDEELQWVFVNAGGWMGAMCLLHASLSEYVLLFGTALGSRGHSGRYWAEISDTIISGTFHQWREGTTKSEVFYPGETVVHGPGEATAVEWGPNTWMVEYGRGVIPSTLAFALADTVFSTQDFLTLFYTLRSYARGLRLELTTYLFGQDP
Ki [1] [nM],Ki [2] [nM],Compound
< 100,> 1000,"O=S(=O)(N[C@@H]1CCN(Cc2ccc(F)cc2)C1)c1ccc(N2CCOCC2)nc1 [Example 36, (R)-N-(1-(4-Fluorobenzyl)pyrrolidin-3-yl)-6-morpholinopyridine-3-sulfonamide]"
< 100,< 100,"CC(C)(C)CCN1CCCC2(CCN(S(=O)(=O)c3ccc(N4CCC5(CCCO5)CC4)nc3)CC2)C1 [Example 78, 8-(5-((2-(3,3-Dimethylbutyl)-2,9-diazaspiro[5.5]undecan-9-yl)sulfonyl)pyridin-2-yl)-1-oxa-8-azaspiro[4.5]decane]"
< 100,< 100,"O=S(=O)(c1ccc(N2CCC(F)(F)CC2)nc1)N1CCCC2(CCN(Cc3ccccc3)CC2)C1 [Example 130, 9-Benzyl-2-((6-(4,4-difluoropiperidin-1-yl)pyridin-3-yl)sulfonyl)-2,9-diazaspiro[5.5]undecane]"
100 to 500,< 100,"CC(C)(C)CCN1CCC2(CC1)CCN(S(=O)(=O)c1ccc(N3CCOCC3)nc1)C2 [Example 79, 4-(5-((8-(3,3-Dimethylbutyl)-2,8-diazaspiro[4.5]decan-2-yl)sulfonyl)pyridin-2-yl)morpholine]"
< 100,< 100,"N#Cc1cc(CN2CCC3(CCCN(S(=O)(=O)c4ccc(N5CCOC5=O)nc4)C3)CC2)ccc1F [Example 161, 2-Fluoro-5-((2-((6-(2-oxooxazolidin-3-yl)pyridin-3-yl)sulfonyl)-2,9-diazaspiro[5.5]undecan-9-yl)methyl)benzonitrile]"
< 100,< 100,"CC(C)(C)CCN1CCCC2(CCN(S(=O)(=O)c3ccc(N4CCCC4=O)nc3)CC2)C1 [Example 136, 1-(5-((2-(3,3-Dimethylbutyl)-2,9-diazaspiro[5.5]undecan-9-yl)sulfonyl)pyridin-2-yl)pyrrolidin-2-one]"
> 1000,100 to 500,"O=S(=O)(N[C@H]1CC[C@H](NCc2ccccc2)CC1)c1ccc(N2CCOCC2)nc1 [Example 51, N-((1 r,4r)-4-(Benzylamino)cyclohexyl)-6-morpholinopyridine-3-sulfonamide]"
< 100,< 100,"CC(C)CCN1CCC2(CC1)CCN(S(=O)(=O)c1ccc(C(F)(F)F)nc1)CC2 [Example 93, 3-Isopentyl-9-((6-(trifluoromethyl)pyridin-3-yl)sulfonyl)-3,9-diazaspiro[5.5]undecane]"
< 100,< 100,"CC(C)(C)CCN1CCC2(CCCN(S(=O)(=O)c3ccc(N4CCOCC4)nc3)C2)CC1 [Example 88, 4-(5-((9-(3,3-Dimethylbutyl)-2,9-diazaspiro[5.5]undecan-2-yl)sulfonyl)pyridin-2-yl)morpholine]"
< 100,< 100,"CC(C)(C)CCN1CCC2(CC1)CCN(S(=O)(=O)c1ccc(N3CCOC3=O)nc1)C2 [Example 138, 3-(5-((8-(3,3-Dimethylbutyl)-2,8-diazaspiro[4.5]decan-2-yl)sulfonyl)pyridin-2-yl)oxazolidin-2-one]"
< 100,< 100,"CCc1ccc(S(=O)(=O)N2CCC3(CCN(CCC(C)(C)C)CC3)CC2)cn1 [Example 109, 3-(3,3-Dimethylbutyl)-9-((6-ethylpyridin-3-yl)sulfonyl)-3,9-diazaspiro[5.5]undecane]"
< 100,500 to 1000,"C[C@H]1CN(Cc2ccccc2)C[C@@H]1NS(=O)(=O)c1ccc(N2CCOCC2)nc1 [Example 6, N-((3R,4S)-1-Benzyl-4-methylpyrrolidin-3-yl)-6-morpholinopyridine-3-sulfonamide]"
< 100,> 1000,"N#Cc1ccc(CN2CC[C@H](NS(=O)(=O)c3ccc(N4CCOCC4)nc3)C2)cc1 [Example 39, (S)-N-(1-(4-Cyanobenzyl)pyrrolidin-3-yl)-6-morpholinopyridine-3-sulfonamide]"
< 100,> 1000,"O=S(=O)(N[C@@H]1CCN(Cc2cccc(F)c2)C1)c1ccc(N2CCOCC2)nc1 [Example 38, (R)-N-(1-(3-Fluorobenzyl)pyrrolidin-3-yl)-6-morpholinopyridine-3-sulfonamide]"
